Values of other authors in patent US20060287342A1, “Triazolopyrimidine heterocycles as cannabinoid receptor modulators” (priority 2005, published 2006).

Columns and labels:
[1] = chronic administration for two weeks
human subjects = settings: 16 week trial period

SMILES	body weight [1]	body weight (human subjects)
Cc1c(C(=O)NN2CCCCC2)nn(-c2ccc(Cl)cc2Cl)c1-c1ccc(I)cc1 [AM-251]	substantial body weight reduction	–
Cc1c(C(=O)NN2CCCCC2)nn(-c2ccc(Cl)cc2Cl)c1-c1ccc(Cl)cc1 [SR-141716]	–	dose-dependently reduced body weight
